Measurements from patent US9745322B2, “Compounds for the treatment of hepatitis C” (priority 2013, dated 2017).
Where two headings read alike, the source gives them in different places.

System: HCV pseudoparticles, genotype 1a (H77C) E1 and E2 envelope
Test: HCV pseudoparticle infection assay (luciferase reporter, Huh7 cells)
Type: cell-based, HCV genotype 1a (H77C)
Details: Hepatitis C virus, Huh-7, 48 h, read-out: EC50 (nM) 1a (H77C), HCV pseudoparticles genotype 1a H77C, Huh7 cells, luciferase 2 days after infection

SMILES | EC50 (class symbol) [nM] | EC50 (numeric value) [nM]
COC(=O)[C@H](CNC(=O)C(=O)N(C)C)NC(=O)c1ccc2cc1OCCCCCCOc1ccc(cc1)CNc1nc(nc(OCC(F)(F)F)n1)N2 [Example 1001] | 0.1 to 100 | 0.624
COC(=O)[C@H](CNC(=O)C(N)=O)NC(=O)c1ccc2cc1OCCCCCCOc1ccc(cc1)CNc1nc(nc(OCC(F)(F)F)n1)N2 [Example 1003] | 0.1 to 100 | 
CN(C)C(=O)C(=O)NC[C@H](NC(=O)c1ccc2cc1OCCCCCCOc1ccc(cc1)CNc1nc(nc(OCC(F)(F)F)n1)N2)C(=O)O [Example 1004] | 0.1 to 100 | 
CNC(=O)C(=O)NC[C@H](NC(=O)c1ccc2cc1OCCCCCCOc1ccc(cc1)CNc1nc(nc(OCC(F)(F)F)n1)N2)C(=O)O [Example 1005] | 0.1 to 100 | 2.47
CNC(=O)C(=O)NC[C@H](NC(=O)c1ccc2cc1OCCCCCCOc1ccc(cc1)CNc1nc(nc(OCC(F)(F)F)n1)N2)C(=O)OC [Example 1002] | 0.1 to 100 | 
